From patent publication US6812239B2, “Method of identification of inhibitors of PDE1C and methods of treatment of diabetes” (Albert Einstein College of Medicine of Yeshiva University, priority 1999, dated 2004)
Where “and” joins values, the source holds several entries; their conditions need not be identical. Equal values may be shown once. Entries after “also recorded” stand apart in the source; their conditions may differ.

Columns and labels:
[1] = test system: cGMP PDE activities of peak I (PDE1C and cGMP-specific PDE); test: cGMP PDE activity of mono-Q FPLC peak I of βTC3 cells; type: biochemical, Mus musculus; conditions: 50 μM 8 MM-IBMX
Procedure: (§1) Mono-Q-FPLC fractionation of PDE activities. Cells were scraped and homogenized in a buffer containing 50 mM Tris 7.5, 250 mM sucrose, 5 mM MgCl2, 0.2 μg/ml aprotinin, leupeptin and pepstatin, and 1 mM 4-(2-aminoethyl)benzenesulfonyl fluoride. Following a 30 min 150,000 g centrifugation, the supernatant was loaded onto a Pharmacia Mono-Q anion exchange column and PDE activities were fractionated by FPLC along a two step salt gradient. Column buffers were (A) 50 mM Tris 7.5 and (B) 50 mM Tris 7.5, 0.5 M NaCl. The gradient consisted of a 10 min increase to 0.2 M NaCl (20% B), and a 90 min increase to 0.5 M NaCl (100% B). One ml fractions were collected.
(§2) PDE assays and kinetic measurements. PDE assays were performed in duplicate as described (40). Analysis and plotting of kinetic data was performed by using the computer program kaleidagraph. The contributions of the high and low affinities cGMP PDEs of peak I to total PDE activity of this peak at a given substrate concentration were calculated using the formula: […]

[2] = test system: soluble PDE activities of βTC3 cells; test: Overall PDE activity in inhibitor-treated βTC3 cells; type: cell-based; conditions: Mus musculus
Source text: An estimate for the ability of the inhibitors to permeate and inhibit PDEs within cells was provided by measurements of overall PDE activity in inhibitor-treated cells. These measurements provide an underestimate of the in vivo effects of the inhibitors due to inhibitor dilution, degradation, and release of inhibitor bound to PDEs, that occur during extraction, and are more pronounced in particulate fractions.

βTC3 cells = test: Insulin release from βTC3 cells by radioimmunoassay; type: cell-based, Mus musculus; conditions: 16.7 mM glucose; for Effect on glucose induced insulin secretion (in words): 2 hr incubation; for Insulin secretion, % of the cellular insulin content / Insulin secretion, % of the insulin content of the cells: 2 hr
Procedure: The cultured cells are starved for glucose in Hepes buffered Krebs-Ringer solution for 1 hr. Subsequently, 16.7 mM glucose and the potential phosphodiesterase inhibitors are added to the cells in Hepes buffered Krebs-Ringer solution and the cells are incubated for 2 additional hr. Each condition is assayed in triplicate. Insulin content of the supernatant after centrifugation, and of the cells after acid extraction, is determined by a radioimmunoassay. Control samples are treated with no potential inhibitor compound or, for control or calibration purposes, with compounds that will inhibit other PDE isozymes but that are known to lack PDE1C inhibitory activity or, for examining glucose-independent effects of potential inhibitor compound alone.
Cell Culture, treatments and measurements of insulin secretion. βTC3 cells were cultured as described and early passages were maintained (D'Ambra, R., Surana, M., Efrat, S., Starr, R. G., and Fleischer, N. (1990) Endocrinology 126, 2815-2822). For measurements of insulin secretion cells were plated onto a 12-well culture dishes 3-4 days, and refed 16 hr, prior to the assay. On the experiment day, cells were washed in Hepes-buffered Krebs-Ringer solution, and incubated in this glucose-free solution for 1 hr. Subsequently, 16.7 mM glucose and, when relevant, PDE inhibitors were added to the cells in Hepes-buffered Krebs-Ringer solution and the cells were incubated for 2 additional hr. Each condition was assayed in triplicates. Insulin content of the supernatant after centrifugation, and of the cells after acid extraction, was determined by a radioimmunoassay as described (D'Ambra, R., Surana, M., Efrat, S., Starr, R. G., and Fleischer, N. (1990) Endocrinology 126, 2815-2822).
Cyclic nucleotide phosphodiesterase inhibitors that augment insulin secretion were identified using used βTC3 insulinoma cells. For measurements of insulin secretion cells were plated onto a 12-well culture dishes 3-4 days, and refed 16 hr, prior to the assay. On the experiment day, cells were washed in Hepes-buffered Krebs-Ringer solution, and incubated in this glucose-free solution for 1 hour. Subsequently, 16.7 mM glucose and, when relevant, phosphodiesterase inhibitors were added to the cells in Hepes-buffered Krebs-Ringer solution and the cells were incubated for 2 additional hours. Each condition was assayed in triplicates. Insulin content of the supernatant after centrifugation, and of the cells after acid extraction, was determined by a radioimmunoassay.

PDE1C of βTC3 cells = PDE1C of βTC3 cells (Mus musculus, UniProt Q64338); test: cAMP PDE activity of mono-Q FPLC peak I (PDE1C) of βTC3 cells; type: biochemical; conditions: for IC50: 1 μM cAMP substrate, average ± standard deviation, read-out: IC50 values Peak I PDE1
Chain of PDE1C of βTC3 cells (Q64338 151-528 limits assumed): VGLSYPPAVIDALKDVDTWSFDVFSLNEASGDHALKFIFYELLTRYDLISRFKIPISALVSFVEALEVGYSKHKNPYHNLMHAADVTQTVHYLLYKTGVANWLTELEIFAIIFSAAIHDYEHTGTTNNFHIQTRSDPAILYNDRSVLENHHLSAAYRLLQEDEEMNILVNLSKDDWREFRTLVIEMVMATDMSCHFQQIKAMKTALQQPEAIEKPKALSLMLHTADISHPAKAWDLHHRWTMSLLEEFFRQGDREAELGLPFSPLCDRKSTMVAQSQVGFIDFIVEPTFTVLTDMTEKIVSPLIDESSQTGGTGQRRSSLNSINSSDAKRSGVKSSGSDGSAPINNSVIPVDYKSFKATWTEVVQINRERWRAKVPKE
Procedure: as §1, §2

involved PDE families = conditions: cited from earlier work
PDE3 = conditions: Beavo 1988; read-out: IC50 for inhibition of PDE3; cited from earlier work
Peak III PDE4 = test: cAMP PDE activity of mono-Q FPLC peak III of βTC3 cells; type: biochemical, Mus musculus; conditions: 2.5 μM rolipram, substrate cAMP 1 μM
Procedure: as §1, §2

PDE1C = conditions: unlike PDE1A and 1B; cited from earlier work
[3] = test system: glucose induced insulin secretion; conditions: Parker et al. 1995; cited from earlier work

With `COCc1nc2c([nH]1)c(=O)n(C)c(=O)n2CC(C)C` [8 MM-IBMX, 8-methoxymethyl-1-methyl-3-(2-methylpropyl)xanthine] the “Inhibition by 8 MM-IBMX, peak I” value ([1]; substrate cGMP 0.1 μM) was 82%, the “Inhibition by 8 MM-IBMX, peak I” value ([1]; substrate cGMP 10 μM) was 57% and the inhibition at 500 µM ([2]; inhibitor applied to cells at 0.5 mM, read-out: Inhibition of soluble cGMP PDE activities in inhibitor-treated cells) was 30%. For the same compound, the “Effect on glucose induced insulin secretion (in words)” value (shortened to “Effect”) (βTC3 cells) was “strongly augmented insulin secretion; also recorded: dose dependent augmentation of insulin secretion”, the “Effect” value (βTC3 cells; listed as 8-methoxymethyl-isobutylmethylxanthine) was “dose dependent augmentation of insulin secretion” and the “Insulin secretion, % of the cellular insulin content” value (βTC3 cells; inhibitor 0.5 mM) was 17.2%. The “Insulin secretion, % of the insulin content of the cells” value (βTC3 cells; inhibitor […]) was 9.3%, the IC50 (PDE1C of βTC3 cells) was 7.5 µM and the inhibition at 50 µM (PDE1C of βTC3 cells; 50 μM 8 MM-IBMX, substrate cAMP 0.5 μM) was 80%.
For `CC(C)Cn1c(=O)n(C)c(=O)c2[nH]cnc21` [IBMX, 1-methyl-3-isobutylxanthine], the “IC50 values for the involved PDE families” value (involved PDE families) is given as “low μM range”, the “Insulin secretion, % of the cellular insulin content” value (βTC3 cells; inhibitor 0.5 mM) is given as 8% and 18% and the “Insulin secretion, % of the cellular insulin content” value (βTC3 cells; inhibitor 0.5 mM, listed as isobutylmethylxanthine) is given as 15.2%.
For `Cc1[nH]c(=O)c(C#N)cc1-c1ccncc1` [Milrinone, 1,6-dihydro-2-methyl-6-oxo-(3,4′-bipyridine)-5-carbonitrile], the IC50 (PDE3) is listed as 0.3 µM, the “Effect” value (βTC3 cells) is listed as “did not affect insulin secretion” and the IC50 (PDE1C of βTC3 cells) is listed as greater than 100 µM.
For `CCCCOc1cc(CC2CNC(=O)N2)ccc1OC` (stereo not shown) [RO20-1724, 4-(3-butoxy-4-methoxybenzyl)-2-imidazolidinone], the “Effect” value (βTC3 cells) was “limited effect; also recorded: did not” and the “Insulin secretion, % of the cellular insulin content” value (βTC3 cells; inhibitor 0.2 mM) was 9.6%.
For `COc1ccc(C2CNC(=O)C2)cc1OC1CCCC1` (stereo not shown) [Rolipram, 4-[3-(cyclopentyloxy)-4-methoxyphenyl]-2-pyrrolidinone], the inhibition at 15 µM ([2]; inhibitor applied to cells at 15 μM, read-out: Inhibition of soluble cAMP PDE activities in inhibitor-treated cells) was 37%, the “Insulin secretion, % of the insulin content of the cells” value (βTC3 cells; over 10^4 fold increase in concentrations, up to 15 μM) was 7.9-10.7% and the IC50 (PDE1C of βTC3 cells) was greater than 100 µM. The “Inhibition by Rolipram, peak III” value (Peak III PDE4) was 97% and the “Inhibition by Rolipram, peak III” value (Peak III PDE4; listed as rolipram) was “abolished”.
In the case of `CCOC(=O)C1=C[C@]2(CC)CCCN3CCc4c(n1c1ccccc41)[C@@H]32` [Vinpocetine, eburnamenine-14-carboxylic acid ethyl ester], the IC50 (PDE1C of βTC3 cells) is given as greater than 100 µM, the “Sensitivity of PDE1C to inhibitor (in words)” value (PDE1C) is given as “resistant” and the “Stimulation of glucose induced insulin secretion (in words)” value [3] is given as “ineffective simulator of glucose induced insulin secretion”.
With `CCCOc1ccccc1-c1nc2nn[nH]c2c(=O)[nH]1` [Zaprinast, zaprinast] the “Effect” value (βTC3 cells) was “enhanced glucose induced secretion; also recorded: partial stimulatory effects”, the “Insulin secretion, % of the cellular insulin content” value (βTC3 cells; inhibitor 0.5 mM) was 6.2% and the IC50 (PDE1C of βTC3 cells) was 4.5 µM. For the same compound, the “Sensitivity of PDE1C to inhibitor (in words)” value (PDE1C) was “sensitive”.
In the case of `COc1cc2c(cc1OC)-c1c/c(=N\c3c(C)cc(C)cc3C)n(C)c(=O)n1CC2` [trequinsin], the “Effect” value (βTC3 cells) is reported as “no effect; also recorded: did not” and the “Insulin secretion, % of the cellular insulin content” value (βTC3 cells; inhibitor 30 nM) is reported as 7%.
